According to US20090105278A1, “Selective inhibitors of human corticosteroid syntheses” (Universitat Des Saarlandes, priority 2004, published 2009):
Where a name gives a salt, the structure may show the parent alone. Read-outs that look alike come from different tables or passages of the source.

Key:
[1] = molecular target: T1, human CYP11B2 (Homo sapiens, UniProt P19099); assay: Screening test in transgenic fission yeast (S. pombe PE1) expressing human CYP11B2; type: cell-based; set-up: expressed in transfected cells; conditions: for inhibition at 0.5 µM: read-out: % Inhibition human hCYP11B2
T1 sequence (P19099 25-503): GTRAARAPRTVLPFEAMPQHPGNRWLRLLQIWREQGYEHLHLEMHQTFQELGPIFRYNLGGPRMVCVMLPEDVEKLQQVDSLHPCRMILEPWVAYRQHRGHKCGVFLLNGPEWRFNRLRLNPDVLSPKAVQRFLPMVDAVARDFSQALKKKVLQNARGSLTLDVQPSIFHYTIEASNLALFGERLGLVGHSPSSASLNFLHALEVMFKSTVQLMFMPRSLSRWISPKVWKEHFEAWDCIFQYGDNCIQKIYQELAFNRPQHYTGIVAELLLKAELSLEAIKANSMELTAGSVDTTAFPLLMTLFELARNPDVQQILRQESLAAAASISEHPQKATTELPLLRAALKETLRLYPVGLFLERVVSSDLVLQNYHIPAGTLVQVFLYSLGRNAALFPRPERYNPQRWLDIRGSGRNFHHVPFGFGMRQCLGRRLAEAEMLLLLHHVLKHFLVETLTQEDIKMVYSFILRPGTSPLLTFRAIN
Summary of the method: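 Deoxycorticosterone conversion to corticosterone, 18-hydroxycorticosterone and aldosterone assessed after EtOAc extraction by HPTLC with 14C phosphorimaging. Conversion rate calculated from quantified steroid spots.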

[2] = molecular target: T2, human CYP11B1 (Homo sapiens, UniProt P15538); assay: V79 MZh 11B1 cells inhibition test; type: cell-based; conditions: hamster fibroblasts which express human CYP11B1; deoxycorticosterone substrate 100 nM; read-out: IC50 V79 11B1 hCYP11B1
T2 construct: expressed in transfected cells; host or cells: V79 MZh11B1 (Chinese hamster lung fibroblasts)
T2 sequence (P15538 25-503): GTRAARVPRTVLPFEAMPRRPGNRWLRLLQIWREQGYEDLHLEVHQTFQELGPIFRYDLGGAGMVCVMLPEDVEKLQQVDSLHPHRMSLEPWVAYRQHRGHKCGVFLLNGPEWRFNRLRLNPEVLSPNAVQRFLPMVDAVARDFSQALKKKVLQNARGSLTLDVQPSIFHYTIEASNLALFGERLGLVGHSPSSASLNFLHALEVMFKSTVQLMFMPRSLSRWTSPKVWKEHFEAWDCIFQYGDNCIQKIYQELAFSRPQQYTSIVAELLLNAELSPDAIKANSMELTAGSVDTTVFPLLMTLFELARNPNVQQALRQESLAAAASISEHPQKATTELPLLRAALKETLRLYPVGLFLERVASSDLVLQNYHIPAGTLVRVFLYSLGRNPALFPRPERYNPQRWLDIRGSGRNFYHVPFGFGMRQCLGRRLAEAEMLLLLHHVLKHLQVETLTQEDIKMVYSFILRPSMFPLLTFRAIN
Procedure: Both cell lines were cultured in DMEM^+ containing […] and the antibiotics penicillin and streptomycin (10%) for protection from bacterial contamination. The cells were passaged every 2-3 days after treatment with trypsin/EDTA because the doubling rate was 1-2 days depending on the number of cells. […] When there was further need, freshly thawed cells were employed.
Thereafter, the plate was stored at 37° C. and […] in a CO2 incubator. […] Controls without inhibitor were treated in the same way. The enzyme reactions were quenched by extracting the supernatant with 500 μl of EtOAc. The samples were centrifuged (10,000 g, 2 min), the solvent was removed and evaporated.
It was calculated by determining the percent inhibition for at least 3 different inhibitor concentrations, which must all be in the linear range of the sigmoidal IC50 curve (log C/% inhibition).
The calculation was effected by linear regression. The values determined were used only if they formed a straight line with a reliability of […].
The plate was developed twice with the mobile solvent chloroform:methanol:water (300:20:1). Unlabeled 11-deoxycorticosterone and corticosterone were applied as a reference for the CYP11B1 reaction. For the CYP11B2 reaction, 11-deoxycorticosterone, corticosterone, 18-hydroxycorticosterone and aldosterone were used as references. The detection of the unlabeled references was effected at 260 nm. Subsequently, imaging plates (BAS MS2340, for ^14C samples, Raytest, Straubenhardt, Germany) were exposed to the HPTLC plates for 48 h. The imaging plates were scanned with the phosphoimager system Fuji FLA 3000 (Raytest, Straubenhardt, Germany), and the steroids were quantified.

[3] = S. pombe cells which express human CYP11B2, deoxycorticosterone substrate 100 nM, inhibitor 500 nM

inhibition at 0.5 µM [1, 3]	IC50 [2]	Compound	% Inhibition human hCYP11B2 [1, 3]	inhibition at 0.5 µM [1]
–	–	5-[(Z)-(5-Chloro-2,3-dihydro-1H-indene-1-ylidene)methyl]-1H-imidazolium oxalate [Compound 48b]	80%	–
91%	374 nM	Fc1ccc2c(c1)CC/C2=C/c1cccc2cnccc12 [Compound 30b, 5-[(Z)-(5-Fluoro-2,3-dihydro-1H-indane-1-ylidene)methyl]isoquinoline Hydrochloride]	–	–
75%	1470 nM	Clc1ccc2c(c1)CC/C2=C\c1cccnc1 [Compound 7a, 3-[(E)-(5-Chloro-2.3-dihydro-1H-indane-1-ylidene)methyl]pyridine Hydrochloride]	–	–
–	1320 nM	C(=C1\CCc2ccccc21)/c1ccncc1 [Compound 2b, 4-[(Z)-2,3-Dihydro-1H-indane-1-ylidenemethyl]pyridine oxalate]	–	–
53%	206 nM	COc1ccc2c(c1)CCC/C2=C/c1cccnc1.Cl [Compound 13b, 3-[(Z)-(6-Methoxy-3,4-dihydronaphthalene-1(2H)-ylidene)methyl]pyridine Hydrochloride]	–	–
81%	790 nM	COc1ccc2c(c1)CC/C2=C/c1cccnc1 [Compound 11b, 3-[(Z)-(5-Methoxy-2,3-dihydro-1H-indane-1-ylidene)methyl]pyridine Hydrochloride]	–	–
92%	304 nM	Clc1cccc2c1CC/C2=C\c1cccnc1 [Compound 25a, 3-[(E)-(4-Chloro-2,3-dihydro-1H-indane-1-ylidene)methyl]pyridine Hydrochloride]	–	–
70%	715 nM	C(=C1/CCCc2ccccc21)/c1cccnc1.Cl [Compound 3a, 3-[(E)-3,4-Dihydronaphthalene-1(2H)-ylidenemethyl]pyridine Hydrochloride]	–	–
67%	2370 nM	CCOc1ccc2c(c1)CC/C2=C\c1cccnc1 [Compound 19a, 3-[(E)-(5-Ethoxy-2,3-dihydro-1H-indane-1-ylidene)methyl]pyridine Hydrochloride]	–	–
79%	1450 nM	COc1ccc2c(c1)CC/C2=C\c1cccnc1 [Compound 11a, 3-[(E)-(5-Methoxy-2,3-dihydro-1H-indane-1-ylidene)methyl]pyridine Hydrochloride]	–	–
68%	1420 nM	C(=C1\CCCc2ccccc21)/c1cccnc1.Cl [Compound 3b, 3-[(Z)-3,4-Dihydronaphthalene-1(2H)-ylidenemethyl]pyridine Hydrochloride]	–	–
–	–	5-[(E)-(6-Chloro-3,4-dihydronaphth-1(2H)-ylidene)methyl]-1H-imidazolium chloride [Compound 46a]	48%	–
83%	657 nM	Clc1cccc2c1CC/C2=C/c1cccnc1 [Compound 25b, 3-[(Z)-(4-Chloro-2,3-dihydro-1H-indane-1-ylidene)methyl]pyridine Hydrochloride]	–	–
72%	3180 nM	Fc1ccc2c(c1)CC/C2=C\c1cncnc1 [Compound 28a, 5-[(E)-(5-Fluoro-2,3-dihydro-1H-indane-1-ylidene)methyl]pyrimidine Hydrochloride]	–	–
52%	903 nM	COc1ccc2c(c1)CCC/C2=C\c1cccnc1 [Compound 13a, 3-[(E)-(6-Methoxy-3,4-dihydronaphthalene-1(2H)-ylidene)methyl]pyridine Hydrochloride]	–	–
–	–	5-[(Z)-3,4-Dihydronaphth-1(2H)-ylidenemethyl]-1H-imidazolium oxalate [Compound 41b]	82%	–
60%	1130 nM	Fc1ccc2c(c1)CC/C2=C\c1cccc2cnccc12 [Compound 30a, 5-[(E)-(5-Fluoro-2,3-dihydro-1H-indane-1-ylidene)methyl]isoquinoline Hydrochloride]	–	–
58%	320 nM	Brc1ccc2c(c1)CC/C2=C/c1cccnc1 [Compound 9b, 3-[(Z)-(5-Bromo-2,3-dihydro-1H-indane-1-ylidene)methyl]pyridine Hydrochloride]	–	–
68%	270 nM	Clc1ccc2c(c1)CC/C2=C/c1cccnc1 [Compound 7b, 3-[(Z)-(5-Chloro-2,3-dihydro-1H-indane-1-ylidene)methyl]pyridine Hydrochloride]	–	–
84%	774 nM	Fc1cccc2c1CC/C2=C\c1cccnc1 [Compound 24a, 3-[(E)-(4-Fluoro-2,3-dihydro-1H-indane-1-ylidene)methyl]pyridine Hydrochloride]	–	–
52%	763 nM	Cc1cccc2c1CC/C2=C\c1cccnc1 [Compound 23a, 3-[(E)-(4-Methyl-2,3-dihydro-1H-indane-1-ylidene)methyl]pyridine Hydrochloride]	–	–
76%	955 nM	COc1cccc2c1/C(=C/c1cccnc1)CC2 [Compound 26a, 3-[(E)-(7-Methoxy-2,3-dihydro-1H-indane-1-ylidene)methyl]pyridine Hydrochloride]	–	–

Compound	inhibition at 0.5 µM [1, 3]	IC50 [2]	% Inhibition human hCYP11B2 [1, 3]	inhibition at 0.5 µM [1]
C(=C1/CCCc2ccccc21)/c1cnc[nH]1 [Compound 41a, 5-[(E)-3,4-Dihydronaphth-1(2H)-ylidenemethyl]-1H-imidazole]	80%	–	–	–
C(=C1\CCc2ccccc21)/c1cnc[nH]1 [Compound 42b, 5-[(Z)-2,3-Dihydro-1H-ind-1-ylidenemethyl]-1H-imidazolium oxalate]	81%	6.1 nM	–	–
Brc1ccc2c(c1)CC/C2=C\c1cnc[nH]1.Cl [Compound 49a, 5-[(E)-(5-Bromo-2,3-dihydro-1H-indene-1-ylidene)methyl]-1H-imidazolium chloride]	68%	–	–	–
5-[(Z)-(5-Bromo-2,3-dihydro-1H-indene-1-ylidene)methyl]-1H-imidazolium oxalate [Compound 49b]	–	23.5 nM	76%	–
Cl.Clc1ccc2c(c1)CC/C2=C\c1cnc[nH]1 [Compound 48a, 5-[(E)-(5-Chloro-2,3-dihydro-1H-indene-1-ylidene)methyl]-1H-imidazolium chloride]	79%	–	–	–
Fc1ccc2c(c1)CC/C2=C\c1ccncc1 [Compound 6a, 4-[(E)-(5-Fluoro-2,3-dihydro-1H-indane-1-ylidene)methyl]pyridine Hydrochloride]	–	380 nM	–	37%
Clc1ccc2c(c1)CC/C2=C\c1ccncc1 [Compound 8a, 4-[(E)-(5-Chloro-2,3-dihydro-1H-indane-1-ylidene)methyl]pyridine Hydrochloride]	–	243 nM	–	38%
C(=C1\CCc2ccccc21)/c1cccnc1.Cl [Compound 1b, 3-[(Z)-2,3-Dihydro-1H-indane-1-ylidenemethyl]pyridine Hydrochloride]	–	86.6 nM	83%	–
Fc1ccc2c(c1)CC/C2=C\c1cccnc1 [Compound 5a, 3-[(E)-(5-Fluoro-2,3-dihydro-1H-indane-1-ylidene)methyl]pyridine Hydrochloride]	88%	311 nM	–	–
